Counter-ions that a name gives are not always drawn.
Conditions: volume distribution; average of three measurements; recrystallised from isopropyl alcohol, gradual cooling in around 15 hours without stirring, no milling
Excerpt: Measurement and characterization of particle size distributions is known in the art. It is possible to compare samples of particulate rasagiline mesylate on the basis of individual points on a cumulative particle size distribution curve. The measurements are represented as d(0.X)-Y (where X and Y are Arabic numerals), each “d” describing an individual point on a cumulative PSD curve. The number “X” represents the percentage (number, volume, or weight) of particles in the population having a nominal size up to and including “Y”. Thus, D90 or d(0.9) of greater than 255 μm is a characteristic of a PSD in which 90% (number, volume, or weight) of the particles in a population have a nominal size of about 255 μm or more (at least some particles having a nominal dimension of 255 μm) and so forth. When PSD is determined by the well-know laser-diffraction method described herein, the D90 measurement depicts a volume average.
Particle Size Distribution (PSD) is determined by laser diffraction in Malvern master Sizer 2000 equipment or its equivalent:
Spread sufficient powder in the dry powder holder of sampler holding unit and close it by the sliding cover. Operate the instrument for particle size analysis.
Report the average of three measurements.

| SMILES | Particle size data (D90) [μm] |
| --- | --- |
| C#CCN[C@@H]1CCc2ccccc21 [Example-1, Rasagiline mesylate] | 292.2 |
| C#CCN[C@@H]1CCc2ccccc21 [Example-2, Rasagiline mesylate] | 337.1 |

Reference: patent US20120321896A1, “RASAGILINE MESYLATE HAVING LARGE PARTICLE SIZE AND A PROCESS FOR PREPARATION THEREOF” (priority 2010, published 2012)
